Measured values taken from paper PMC3764917 (Journal of medicinal chemistry, 2012).
Counter-ions that a name gives are not always drawn.

Assays:
[1] = humans; cited from earlier work
[2] = molecular target: T1, FAAH (Rattus norvegicus, UniProt P97612); assay: FAAH activity: [3H]anandamide hydrolysis by total rat brain homogenates; assay type: biochemical
T1 sequence (P97612 1-579): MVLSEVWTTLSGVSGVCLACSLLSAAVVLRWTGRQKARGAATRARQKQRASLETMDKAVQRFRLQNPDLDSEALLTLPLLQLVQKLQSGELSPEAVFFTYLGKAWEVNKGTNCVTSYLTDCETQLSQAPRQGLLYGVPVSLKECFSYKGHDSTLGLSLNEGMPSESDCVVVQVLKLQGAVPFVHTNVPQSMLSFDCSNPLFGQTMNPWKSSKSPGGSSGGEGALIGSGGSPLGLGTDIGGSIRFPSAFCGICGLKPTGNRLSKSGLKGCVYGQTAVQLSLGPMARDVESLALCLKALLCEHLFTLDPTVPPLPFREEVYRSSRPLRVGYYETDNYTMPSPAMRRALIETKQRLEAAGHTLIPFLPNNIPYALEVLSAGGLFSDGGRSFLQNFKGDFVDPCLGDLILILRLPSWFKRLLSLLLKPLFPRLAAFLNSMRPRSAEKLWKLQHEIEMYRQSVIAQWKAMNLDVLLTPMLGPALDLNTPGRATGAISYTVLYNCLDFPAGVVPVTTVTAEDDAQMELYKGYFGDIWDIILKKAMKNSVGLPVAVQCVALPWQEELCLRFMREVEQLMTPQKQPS

[3] = molecular target: T2, ovine COX-1 (Ovis aries, UniProt P05979); assay: COX activity, commercial enzyme immunoassay kit
T2 sequence (P05979 25-600): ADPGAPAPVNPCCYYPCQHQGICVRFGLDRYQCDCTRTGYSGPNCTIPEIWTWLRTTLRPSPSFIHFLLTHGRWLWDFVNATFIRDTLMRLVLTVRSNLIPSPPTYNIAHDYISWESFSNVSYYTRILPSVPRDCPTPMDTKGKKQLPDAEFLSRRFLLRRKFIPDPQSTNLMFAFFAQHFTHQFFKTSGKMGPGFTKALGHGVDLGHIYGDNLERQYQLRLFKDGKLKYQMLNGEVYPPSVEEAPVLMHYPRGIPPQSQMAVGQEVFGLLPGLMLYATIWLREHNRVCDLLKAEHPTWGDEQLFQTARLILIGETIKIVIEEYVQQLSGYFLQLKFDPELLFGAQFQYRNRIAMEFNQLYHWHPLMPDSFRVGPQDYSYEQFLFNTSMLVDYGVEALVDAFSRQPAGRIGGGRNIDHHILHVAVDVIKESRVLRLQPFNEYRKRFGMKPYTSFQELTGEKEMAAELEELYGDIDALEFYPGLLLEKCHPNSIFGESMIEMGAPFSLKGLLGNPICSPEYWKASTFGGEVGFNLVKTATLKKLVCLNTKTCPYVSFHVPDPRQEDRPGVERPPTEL

[4] = molecular target: T3, human COX-2 (Homo sapiens, UniProt P35354); assay: COX activity, commercial enzyme immunoassay kit
T3 sequence (P35354 18-604): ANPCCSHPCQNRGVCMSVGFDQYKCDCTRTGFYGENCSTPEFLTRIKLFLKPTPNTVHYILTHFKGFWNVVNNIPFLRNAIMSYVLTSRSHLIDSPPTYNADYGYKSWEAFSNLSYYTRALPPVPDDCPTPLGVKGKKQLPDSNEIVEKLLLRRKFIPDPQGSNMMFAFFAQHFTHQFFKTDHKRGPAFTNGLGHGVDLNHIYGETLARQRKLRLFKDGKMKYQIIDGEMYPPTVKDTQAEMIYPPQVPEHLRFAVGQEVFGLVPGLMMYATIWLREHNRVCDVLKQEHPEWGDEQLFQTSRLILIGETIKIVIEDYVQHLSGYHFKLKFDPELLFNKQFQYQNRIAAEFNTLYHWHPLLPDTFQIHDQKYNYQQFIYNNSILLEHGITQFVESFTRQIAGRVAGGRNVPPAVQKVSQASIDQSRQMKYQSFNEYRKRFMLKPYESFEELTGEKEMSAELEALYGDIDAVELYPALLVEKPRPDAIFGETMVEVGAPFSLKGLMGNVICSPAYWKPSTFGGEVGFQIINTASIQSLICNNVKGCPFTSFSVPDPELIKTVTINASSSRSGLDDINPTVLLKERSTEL

[5] = system: COX-2; details: oxygen electrode assay, arachidonic acid as substrate; cited from earlier work

Row | Structure (SMILES) | COX-1 inhibition, result in words [3] | COX-2 inhibition, result in words [4] | other results
1 | CC(C(=O)O)c1ccc2c(c1)[nH]c1ccc(Cl)cc12 (centres unmarked) [Compound 1, carprofen] |  |  | ulcerogenic side effects compared to other NSAIDs [1]: reduced ulcerogenic side effects
2 | CC(C(=O)O)c1ccc2c(c1)[nH]c1ccccc12 (centres unmarked) [Compound 2, 2-(9H-carbazol-2-yl)propanoic acid] |  |  | IC50 [2]: 5 µM
3 | COC(=O)C(C)c1ccc2c(c1)[nH]c1ccc(Cl)cc12 (centres unmarked) [Compound 3, Methyl 2-(6-chloro-9H-carbazol-2-yl)propanoate] | lack of activity | lack of activity | 
4 | CC(C(=O)NCCO)c1ccc2c(c1)[nH]c1ccc(Cl)cc12 (centres unmarked) [Compound 4a, 2-(6-chloro-9H-carbazol-2-yl)-N-(2-hydroxyethyl)propanamide] | lack of activity | lack of activity | 
5 | CC(C(=O)Nc1ccccc1)c1ccc2c(c1)[nH]c1ccc(Cl)cc12 (centres unmarked) [Compound 4b, 2-(6-chloro-9H-carbazol-2-yl)-N-phenylpropanamide] | lack of activity | lack of activity | 
6 | CC(C(=O)O)c1ccc2c3cc(Cl)ccc3n(Cc3ccccc3)c2c1 (centres unmarked) [Compound 6b, 2-(9-benzyl-6-chloro-9H-carbazol-2-yl)propanoic acid] |  |  | increase in FAAH potency compared to 1 ([2]; ratio of FAAH IC50 values versus compound 1): 3 fold
7 | COc1ccccc1Cn1c2ccc(Cl)cc2c2ccc(C(C)C(=O)O)cc21 (centres unmarked) [Compound 6g, 2-(6-chloro-9-(2-methoxybenzyl)-9H-carbazol-2-yl)propanoic acid] |  |  | FAAH activity at 30 μM, result in words ([2]; 30 μM): no activity
8 | CCCCCCNC(=O)n1c2ccc(Cl)cc2c2ccc(C(C)C(=O)O)cc21 (centres unmarked) [Compound 10a, 2-(6-chloro-9-(hexylcarbamoyl)-9H-carbazol-2-yl)propanoic acid] |  |  | IC50 [2]: 3 µM
9 | CNC(=O)n1c2ccc(Cl)cc2c2ccc(C(C)C(=O)O)cc21 (centres unmarked) [Compound 10b, 2-[6-chloro-9-(methylcarbamoyl)carbazol-2-yl]propanoic acid] |  |  | FAAH inhibition, result in words [2]: no inhibition
10 | CCCCNC(=O)n1c2ccc(Cl)cc2c2ccc(C(C)C(=O)O)cc21 (centres unmarked) [Compound 10c, 2-(9-(butylcarbamoyl)-6-chloro-9H-carbazol-2-yl)propanoic acid] |  |  | FAAH inhibition, result in words [2]: no inhibition
11 | CCCCCCOC(=O)n1c2ccc(Cl)cc2c2ccc(C(C)C(=O)O)cc21 (centres unmarked) [Compound 12, 2-(6-chloro-9-((hexyloxy)carbonyl)-9H-carbazol-2-yl)propanoic acid] |  |  | weaker potency against FAAH compared to 10a ([2]; ratio of FAAH IC50 values versus 10a): 10 fold
12 | CC(=O)n1c2ccc(Cl)cc2c2ccc(C(C)C(=O)O)cc21 (centres unmarked) [Compound 15a, 2-(9-acetyl-6-chloro-9H-carbazol-2-yl)propanoic acid] | did not show any inhibitory potency | did not show any inhibitory potency | FAAH inhibition, result in words [2]: did not show any inhibitory potency
13 | CC(C(=O)O)c1ccc2c3cc(Cl)ccc3n(C(=O)c3ccc(F)cc3)c2c1 (centres unmarked) [Compound 15d, 2-(6-chloro-9-(4-fluorobenzoyl)-9H-carbazol-2-yl)propanoic acid] | did not inhibit | did not inhibit | 
14 | COc1ccc(C(=O)n2c3ccc(Cl)cc3c3ccc(C(C)C(=O)O)cc32)cc1 (centres unmarked) [Compound 15e, 2-(6-chloro-9-(4-methoxybenzoyl)-9H-carbazol-2-yl)propanoic acid] | did not inhibit | did not inhibit | 
15 | CC(C(=O)O)c1ccc2c3cc(Cl)ccc3n(C(=O)c3cccc(Cl)c3)c2c1 (centres unmarked) [Compound 15f, 2-(6-chloro-9-(3-chlorobenzoyl)-9H-carbazol-2-yl)propanoic acid] | lost | lost | 
16 | CC(C(=O)O)c1ccc2c3cc(Cl)ccc3n(C(=O)c3ccccc3Cl)c2c1 (centres unmarked) [Compound 15g, 2-(6-chloro-9-(2-chlorobenzoyl)-9H-carbazol-2-yl)propanoic acid] | lost | lost | 
17 | CC(C(=O)O)c1ccc2c3cc(Cl)ccc3n(C(=O)c3ccc(Cl)c(Cl)c3)c2c1 (centres unmarked) [Compound 15h, 2-(6-chloro-9-(3,4-dichlorobenzoyl)-9H-carbazol-2-yl)propanoic acid] | total loss of activity | total loss of activity | FAAH inhibition, result in words [2]: total loss of activity
18 | CC(C(=O)O)c1ccc2c3cc(Cl)ccc3n(C(=O)c3c[nH]cn3)c2c1 (centres unmarked) [Compound 15j, 2-(6-chloro-9-(1H-imidazole-4-carbonyl)-9H-carbazol-2-yl)propanoic acid hydrochloride] |  | no relevant inhibition | IC50 [2]: 6 µM
19 | CC(C(=O)O)c1ccc2c3cc(Cl)ccc3n(C(=O)c3cscn3)c2c1 (centres unmarked) [Compound 15k, 2-(6-chloro-9-(thiazole-4-carbonyl)-9H-carbazol-2-yl)propanoic acid] | detrimental | detrimental | FAAH inhibition, result in words [2]: detrimental
20 | Cc1cccnc1NC(=O)C(C)c1ccc(CC(C)C)cc1 (centres unmarked) [ibu-am5, N-(3-methylpyridin-2-yl)-2-(4-isobutylphenyl)-propionamide] |  |  | COX-2 inhibition, result in words [5]: inactive
21 | CC(C)Cc1ccc(C(C)C(=O)O)cc1 (centres unmarked) [ibuprofen, reference compound] |  |  | FAAH inhibition, result in words [2]: very weak
